According to patent US8247211B2, “Glycopeptide antibiotics” (American Cyanamid Company, priority 2001, dated 2012):

Assays:
Assay in all cases: In vitro antibacterial evaluation: minimum inhibitory concentration (MIC), broth dilution method
Type in all cases: cell-based
Enterococcus sp. = tested on: Enterococcus sp.
Method in brief: (§1)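 MIC read as lowest drug level preventing visible growth. Organisms at 5×10^5 CFU/mL were exposed to a 64-0.06 μg/mL dilution series in Muller-Hinton II […] following NCCLS broth dilution standard M7-A2.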

Escherichia coli = tested on: Escherichia coli
Method in brief: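 Following NCCLS approved standard M7-A2, compounds are serially diluted from 64 to 0.06 μg/mL in Muller-Hinton II […] and inoculated at 5×10^5 CFU/mL; the MIC is the minimum concentration at which growth is inhibited.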

Staphylococcus sp. = details: broth dilution, 18 hours at 35° C.
Method in brief: as §1

Streptococcus sp. = tested on: Streptococcus sp.
Method in brief: as §1

[1] = broth dilution, inoculum 5×10^5 CFU/mL, 18 hours at 35° C.

Cyclo[glycyl-β-methylphenylalanyl-O-[4-O-[4,6-O-β-(carboxymethoxy)benzylidene]hexopyranosyl]hexonyranosyl]tyrosyl-3-(2-iminoimidazolidin-4-yl)seryl-3-(3-hexopyranosyl-2-iminoimidazolidin-4-yl)serylseryl] [Example 166]
>64 µg/mL: MIC Escherichia coli (ATCC 25922) (Escherichia coli; strain ATCC 25922) | MIC Escherichia coli (GC 4559) (Escherichia coli; strain GC 4559)
4 µg/mL: MIC Coagulase Negative Staphylococcus (GC 4547) (Staphylococcus sp.; 5×10^5 CFU/mL) | MIC Coagulase Negative Staphylococcus (GC 4548) (Staphylococcus sp.; 5×10^5 CFU/mL) | MIC Coagulase Negative Staphylococcus (GC 4549) (Staphylococcus sp.; 5×10^5 CFU/mL) | MIC Coagulase Negative Staphylococcus (GC 6257) (Staphylococcus sp.; 5×10^5 CFU/mL) | MIC Staphylococcus aureus-SMITH (GC 4543) (Staphylococcus sp.; 5×10^5 CFU/mL) | MIC Staphylococcus aureus-SMITH (GC 4543) (Staphylococcus sp.; strain GC 4543) | MIC Coagulase Negative Staphylococcus (GC 4547) (Staphylococcus sp.; strain GC 4547) | MIC Coagulase Negative Staphylococcus (GC 4548) (Staphylococcus sp.; strain GC 4548) | MIC Coagulase Negative Staphylococcus (GC 4549) (Staphylococcus sp.; strain GC 4549) | MIC Coagulase Negative Staphylococcus (GC 6257) (Staphylococcus sp.; strain GC 6257)
1 µg/mL: MIC Streptococcus pneumoniae (ATCC 6301) (Streptococcus sp.; [1]) | MIC Streptococcus pneumoniae (GC 1894) (Streptococcus sp.; [1]) | MIC Streptococcus pneumoniae (ATCC 6301) (Streptococcus sp.; strain ATCC 6301) | MIC Streptococcus pneumoniae (GC 1894) (Streptococcus sp.; strain GC 1894)
8 µg/mL: MIC Staphylococcus aureus (ATCC 29213) (Staphylococcus sp.; 5×10^5 CFU/mL) | MIC Staphylococcus aureus (GC 1131) (Staphylococcus sp.; 5×10^5 CFU/mL) | MIC Staphylococcus aureus (GC 4541) (Staphylococcus sp.; 5×10^5 CFU/mL) | MIC Staphylococcus aureus (ATCC 29213) (Staphylococcus sp.; strain ATCC 29213) | MIC Staphylococcus aureus (GC 1131) (Staphylococcus sp.; strain GC 1131) | MIC Staphylococcus aureus (GC 4541) (Staphylococcus sp.; strain GC 4541)
2 µg/mL: MIC Escherichi coli (GC 4560) (Escherichia coli; strain GC 4560)
32 µg/mL: MIC Enterococcus avium (GC 4558) (Enterococcus sp.; [1]) | MIC Enterococcus faecalis (ATCC 29212) (Enterococcus sp.; [1]) | MIC Enterococcus faecalis (GC 2242) (Enterococcus sp.; [1]) | MIC Enterococcus faecalis (GC 6189) (Enterococcus sp.; [1]) | MIC Enterococcus faecium (GC 2243) (Enterococcus sp.; [1]) | MIC Enterococcus faecium (GC 4556) (Enterococcus sp.; [1]) | MIC Enterococcus faecalis (ATCC 29212) (Enterococcus sp.; strain ATCC 29212) | MIC Enterococcus faecalis (GC 2242) (Enterococcus sp.; strain GC 2242) | MIC Enterococcus faecium (GC 2243) (Enterococcus sp.; strain GC 2243) | MIC Enterococcus faecium (GC 4556) (Enterococcus sp.; strain GC 4556) | MIC Enterococcus avium (GC 4558) (Enterococcus sp.; strain GC 4558) | MIC Enterococcus faecalis (GC 6189) (Enterococcus sp.; strain GC 6189)
